# In ChEMBL document CHEMBL1221283, “Antimicrobial phenolic abietane diterpene from Lycopus europaeus L. (Lamiaceae)” (2010):
# Columns and labels:
# Type in all cases: functional
# [1] = system: Escherichia coli; assay: Antibacterial activity against Escherichia coli clinical isolate after 24 hrs by broth microdilution method
# [2] = system: Aspergillus fumigatus; assay: Antifungal activity against Aspergillus fumigatus isolates after 48 hrs by broth microdilution method
# [3] = system: Staphylococcus aureus; assay: Antibacterial activity against Staphylococcus aureus ATCC 25923 after 24 hrs by broth microdilution method; details: ATCC 25923, 24 h
# [4] = system: Trueperella pyogenes; assay: Antibacterial activity against Corynebacterium pyogenes ATCC 19411 after 24 hrs by broth microdilution method; details: ATCC 19411, 24 h
# [5] = system: Micrococcus luteus; assay: Antibacterial activity against Sarcina lutea food isolate after 24 hrs by broth microdilution method
# [6] = system: Penicillium chrysogenum; assay: Antifungal activity against Penicillium chrysogenum isolates after 48 hrs by broth microdilution method
# [7] = system: Staphylococcus aureus; assay: Antibacterial activity against Staphylococcus aureus ATCC 6538 after 24 hrs by broth microdilution method; details: ATCC 6538, 24 h
# [8] = system: Salmonella enterica; assay: Antibacterial activity against Salmonella enterica ATCC 13076 after 24 hrs by broth microdilution method; details: ATCC 13076, 24 h
# [9] = system: Bacillus subtilis; assay: Antibacterial activity against Bacillus subtilis ATCC 6633 after 24 hrs by broth microdilution method; details: ATCC 6633, 24 h
# [10] = system: Staphylococcus aureus; assay: Antibacterial activity against Staphylococcus aureus food isolate after 24 hrs by broth microdilution method
# [11] = system: Pseudomonas aeruginosa; assay: Antibacterial activity against Pseudomonas aeruginosa ATCC 9027 after 24 hrs by broth microdilution method; details: ATCC 9027, 24 h
# [12] = system: Acremonium chrysogenum; assay: Antifungal activity against Acremonium chrysogenum isolates after 48 hrs by broth microdilution method; details: Hapsidospora chrysogena
# [13] = system: Klebsiella pneumoniae; assay: Antibacterial activity against Klebsiella pneumoniae clinical isolate after 24 hrs by broth microdilution method
# [14] = system: Escherichia coli; assay: Antibacterial activity against Escherichia coli ATCC 25922 after 24 hrs by broth microdilution method; details: ATCC 25922, 24 h
# [15] = system: Klebsiella pneumoniae; assay: Antibacterial activity against Klebsiella pneumoniae ATCC 10031 after 24 hrs by broth microdilution method; details: ATCC 10031, 24 h
# [16] = system: Candida albicans; assay: Antifungal activity against Candida albicans ATCC 10231 after 48 hrs by broth microdilution method
# [17] = system: Aspergillus restrictus; assay: Antifungal activity against Aspergillus restrictus isolates after 48 hrs by broth microdilution method
# [18] = system: Proteus vulgaris; assay: Antibacterial activity against Proteus vulgaris ATCC 8427 after 24 hrs by broth microdilution method; details: ATCC 8427, 24 h
# [19] = system: Escherichia coli; assay: Antibacterial activity against Escherichia coli food isolate after 24 hrs by broth microdilution method
# [20] = system: Bacillus cereus; assay: Antibacterial activity against Bacillus cereus food isolate after 24 hrs by broth microdilution method
# [21] = system: Saccharomyces cerevisiae; assay: Antifungal activity against Saccharomyces cerevisiae ATCC 9763 after 48 hrs by broth microdilution method
molecule,measurement,setting,value
COC(=O)[C@]1(C)CC[C@H](OC(C)=O)[C@]2(C)c3c(O)cc(C(C)C)cc3[C@H](O)[C@@H](OC(C)=O)[C@H]21 [EUROABIENOL],MBC,[1],716 µg/mL
same,MIC,[1],358 µg/mL
same,MFC,[2],358 µg/mL
same,MIC,[2],89 µg/mL
same,MBC,[3],5740 µg/mL
same,MIC,[3],179 µg/mL
same,MBC,[4],1430 µg/mL
same,MIC,[4],179 µg/mL
same,MBC,[5],179 µg/mL
same,MIC,[5],45 µg/mL
same,MFC,[6],2870 µg/mL
same,MIC,[6],1430 µg/mL
same,MBC,[7],2870 µg/mL
same,MIC,[7],22 µg/mL
same,MBC,[8],1430 µg/mL
same,MIC,[8],179 µg/mL
same,MBC,[9],2870 µg/mL
same,MIC,[9],179 µg/mL
same,MBC,[10],716 µg/mL
same,MIC,[10],22 µg/mL
same,MBC,[11],2870 µg/mL
same,MIC,[11],358 µg/mL
same,MFC,[12],> 5740 µg/mL
same,MIC,[12],> 5740 µg/mL
same,MBC,[13],716 µg/mL
same,MIC,[13],45 µg/mL
same,MBC,[14],2870 µg/mL
same,MIC,[14],179 µg/mL
same,MBC,[15],1430 µg/mL
same,MIC,[15],179 µg/mL
same,MFC,"[16]; ATCC 10231, 48 h",1430 µg/mL
same,MIC,"[16]; ATCC 10231, 48 h",358 µg/mL
same,MFC,[17],2870 µg/mL
same,MIC,[17],1430 µg/mL
same,MBC,[18],5740 µg/mL
same,MIC,[18],179 µg/mL
same,MBC,[19],5740 µg/mL
same,MIC,[19],716 µg/mL
same,MBC,[20],716 µg/mL
same,MIC,[20],89 µg/mL
same,MFC,"[21]; ATCC 9763, 48 h",89 µg/mL
same,MIC,"[21]; ATCC 9763, 48 h",89 µg/mL
CN(C)[C@@H]1C(O)=C(C(N)=O)C(=O)[C@@]2(O)C(O)=C3C(=O)c4c(O)cccc4[C@@](C)(O)[C@H]3C[C@@H]12 [TETRACYCLINE],MIC,[1],0.195 µg/mL
same,MIC,[3],0.098 µg/mL
same,MIC,[4],1.56 µg/mL
same,MIC,[5],0.39 µg/mL
same,MIC,[7],0.098 µg/mL
same,MIC,[8],0.195 µg/mL
same,MIC,[9],0.195 µg/mL
same,MIC,[10],0.098 µg/mL
same,MIC,[11],1.56 µg/mL
same,MIC,[13],0.39 µg/mL
same,MIC,[14],1.56 µg/mL
same,MIC,[15],0.39 µg/mL
same,MIC,[18],0.39 µg/mL
same,MIC,[19],1.56 µg/mL
same,MIC,[20],0.195 µg/mL
NYSTATIN,MIC,[2],0.195 µg/mL
same,MIC,[6],0.39 µg/mL
same,MIC,[12],0.195 µg/mL
same,MIC,[16],6.25 µg/mL
same,MIC,[17],0.781 µg/mL
same,MIC,[21],12.5 µg/mL
